Literature values, collected in US20260272852A1, “COAGULATION PATHWAY AND NICOTINAMIDE-ADENINE DINUCLEOTIDE PATHWAY MODULATING COMPOSITIONS AND METHODS OF THEIR USE” (L'OREAL, priority 2021, published 2026).

Experiments:
[1] = system: suction induced petechia formation; details: 0.5% vitamin K1 cream twice daily for one week, ten healthy individuals
[2] = system: 585-nm pulsed dye laser-induced purpuras
[3] = topical 4% niacinamide treatment
[4] = system: hyperpigmentation spots, fine lines, and wrinkles; details: moisturizer containing 5% niacinamide, half of face, 12 weeks

With `CC1=C(C/C=C(\C)CCC[C@H](C)CCC[C@H](C)CCCC(C)C)C(=O)c2ccccc2C1=O` [vitamin K1, phylloquinone] as the compound, how does the “Influence on suction induced petechia formation” value [1] read?
Its value is “no influence”.

Which “Effect of pretreatment on 585-nm pulsed dye laser-induced purpuras” value [2] does the source give for vitamin K here?
The value was “no effect”.

With `NC(=O)c1cccnc1` [niacinamide] as the compound, how does the “Treated patients with good-to-excellent results” value [3] read?
Its value is 44%.

What about the “Hyperpigmentation spots, fine lines, and wrinkles, treated side compared to control side” value [4] of the same compound?
The value was “significant improvements”.
